Test results as given in article PMC2945764, “Carboxypeptidase A6 in Zebrafish Development and Implications for VIth Cranial Nerve Pathfinding” (PLoS ONE, 2010).

Target: T1, zebrafish CPA6 (zCPA6) (Danio rerio, UniProt E7F2H8)
T1 construct: full-length cDNA in pcDNA3.1, untagged, expressed in HEK293T cells; mature 65 kDa with EGFP
T1 sequence (E7F2H8 133-442): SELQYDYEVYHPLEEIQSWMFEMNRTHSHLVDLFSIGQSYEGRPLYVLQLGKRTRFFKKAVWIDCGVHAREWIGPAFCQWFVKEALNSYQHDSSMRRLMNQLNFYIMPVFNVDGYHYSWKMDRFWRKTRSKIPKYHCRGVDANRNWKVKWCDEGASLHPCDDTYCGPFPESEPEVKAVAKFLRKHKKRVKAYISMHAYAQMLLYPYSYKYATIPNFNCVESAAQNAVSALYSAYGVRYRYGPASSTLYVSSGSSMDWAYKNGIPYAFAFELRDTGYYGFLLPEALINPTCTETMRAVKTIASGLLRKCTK
Test: decrease in absorbance at […] nm, ECM-bound enzyme of transfected HEK293T cells against untransfected wells
Assay type: biochemical
Settings: 0.5 mM substrate, 50 mM Tris-HCl pH 7.5, 150 mM NaCl, 37 °C; untagged enzyme

| SMILES | decrease in absorbance at 336 nm, ECM-bound enzyme of transfected HEK293T cells |
| --- | --- |
| O=C(C=Cc1ccco1)N[C@@H](Cc1ccccc1)C(=O)N[C@@H](Cc1ccccc1)C(=O)O [fa-FF] | fa-FF and fa–RL were most rapidly cleaved |
| CC(C)C[C@H](NC(=O)[C@H](CCCNC(=N)N)NC(=O)C=Cc1ccco1)C(=O)O [fa-RL, fa–RL] | fa-FF and fa–RL were most rapidly cleaved |
